For experiment [1], the system named is NCI-H1792 lung adenocarcinoma (LUAD) cells. Kind of experiment: Spheroid growth inhibition (SGI) assay, NCI-H1792. The format is cell-based. The conditions noted are these: NCI-H1792 spheroids; 30 nM palbociclib, 300 nM PF-07220060, 300 nM PF-07104091; 14 days. As to the method: NCI-H1792 and NCI-H23 lung adenocarcinoma (LUAD) cells lines were obtained from ATCC and maintained in RPMI 1640 medium supplemented with 10% fetal bovine serum and penicillin-streptomycin as per ATCC guidelines. Cells were maintained in humidified incubator at 37° C. with 5% CO2.
Spheroid assays were performed in 96 well ultralow attachment plates (ULA-96U) from Nexcelom & Thermo Fisher Scientific. […] To aid spheroid formation, dispensed cells were centrifuged at 220×g for 6 minutes in the ultralow attachment plates and allowed to form compact spheroids for 4 days prior to the initiation of treatment. […] DMSO (0.01%) was used as the vehicle control. DMSO and all compounds were diluted in cell medium. Medium and compounds were replenished twice per week, with 3 and 4-day intervals. Replenishment was executed by aspirating 150 μL of medium per well without disturbing the spheroid and then adding the same volume of premixed medium/compound solution to spheroids. Spheroid diameter was quantified immediately following each medium change twice a week (on every 3rd or 4th day) throughout the duration of the assay.
Average diameters of tumor spheroids were plotted in GraphPad Prism 8 and the AUC calculated. AUC baseline was determined by the average tumor spheroid diameter at Day 0 in the vehicle (DMSO) controls. Spheroid growth inhibition, or SGI, was calculated as follows: SGI=(1−AUC treatment/AUC DMSO)×100%. SGI for all treatment arms was derived at the timepoint when the vehicle (DMSO) treated spheroids reach their maximal diameter (usually close to 1 mm but this can differ among cell lines); this corresponds to the last time point taken for the vehicle (DMSO) treated spheroids. SEM was calculated based on n=10 to 12 wells per test group.
Growth of lung adenocarcinoma multicellular tumor spheroids (MCTS) was monitored over time to assess: (i) amplitude of response (SGI) and (ii) duration of response to the CDK4 inhibitor PF-07220060 as a single agent, and in combination with the CDK2 inhibitor PF-07104091.

Experiment [2] concerns MCF7 breast cancer cell line. Kind of experiment: Cell proliferation combination assay (Loewe Volume, CI), MCF7. As to conditions: MCF7 cells; for Best CI: Best CI Level 70. The format is cell-based, Human. The method, then: (§1) The combination effects of PF-07104091 and PF-07220060 were evaluated in a cell proliferation assay with MCF7 and T47D BC cell lines.
(§2) Drug combinations were analyzed using the Dose Equivalence Principle, and the Loewe Volume score. When modeling synergy using the Dose Equivalence Principle, the Loewe Volume score for the combination compounds should be greater than the compound self-cross controls, and the Combination Index (C) score for the combination compounds should be less than compound self-cross controls. […] The isobolograms set to an anti-proliferation threshold at 70% confirmed a synergistic response.

Experiment [3] deals with T47D breast cancer cell line. Kind of experiment: Cell proliferation combination assay (Loewe Volume, CI), T47D. As to conditions: T-47D cells; for Best CI: Best CI Level 70. The format is cell-based, Human. As to the method:
as §1, §2

In the next experiment the test system is ST941 PBR PDX model. Put plainly: In vivo efficacy, palbociclib-resistant ST941 PBR PDX model (Example 4). As to conditions: ST941PBR, Day 28; PO BID: PF-07104091 120 mpk, PF-07220060 60 mpk, PF-06873600 30 mpk, palbociclib 10 mpk; fulvestrant 10 mpk SC. Set-up: species or system NSG mice. As to the method:
Female NSG mice (Jackson Lab) were subcutaneously implanted with fragment (27 mm^3 to 64 mm^3 size) into the dorsal region. All mice for HCC1428, MCF7 and ST941 PBR studies were supplemented with 8.5 μg/mL estradiol water (β-Estradiol Sigma-Aldrich, cat #E2758-5G) and gave ad libitum till end of study. For the in vivo efficacy studies, tumor volume and body weights were measured twice a week. Tumor volume was calculated using the [(Length×Width×Width)/2)] formula. TGI was calculated as 100*(1−ΔT/ΔC). The ΔC (ΔT) was obtained by subtracting the mean tumor burden in the vehicle (treated) group on the first day of treatment (Day 0) from the mean tumor burden in vehicle (treated) group on the assessment day. Statistical analysis was performed using ANCOVA when the mean tumor volume in vehicle treated mice reached tumor cutoff size.
We established model in house by continuous treatment of the ST941 PBR tumor bearing mice with PD-0332991 at 50 mg/kg, PO QD plus fulvestrant at 10 mg/kg, SC twice in the first week, then weekly thereafter. To propagate donors for the TGI study, tumors were transplanted to recipient mice. One week after the re-implantation, the recipient mice received continuous treatment with palbociclib plus fulvestrant (dosing schedule described above). After 1 to 2 serial in vivo propagation with the same treatment regimen, the resistant tumors in the range of 700 to 800 mm^3 were re-implanted for a study expansion. The remaining tumor fragments were viably frozen for future use.
The live donor mice were established by implanting ST941 PBR (p13) tumor fragments. Once reaching a range of 700 to 800 mm^3, the donor tumors were subsequently transplanted into secondary recipient mice for a study expansion. To maintain the resistant clones, the ST941 PBR tumor bearing mice were treated with PD-0332991 at 50 mg/kg, PO. QD plus fulvestrant at 10 mg/kg, SC twice in the first week, then weekly afterwards for 10 weeks. The treatment was initiated one week after the implant until day of randomization for study enrollment. […] PF-07104091 (lot 021), PF-07220060 (lot CPo126812-01-SY-5700-01), PF-06873600 (lot 022) and PD-0332991 (lot GR08498) were administered (PO) BID (7 hr apart) while fulvestrant (lot 20160224-2) at 10 mg/kg, SC twice in the first week, then weekly afterwards. All mice received treatment continuously until Day 28. TGI was assessed on Day 28 post first dose.

The subject of another experiment is A427. Put plainly: Combinatorial activity in LUAD cell line A427. In kind it is cell-based. As to conditions: Homo sapiens, A-427; A427, KRAS G12D; single agent; read-out: (nM) s.a. The method, then: (§3) Combinatorial activity of PF-07104091 and PF-07220060 was assessed in LUADs as single agents (s.a.) or in combination.
In the next experiment the test system is ABC1. Kind of experiment: Combinatorial activity in LUAD cell line ABC1. The format is cell-based. As to conditions: Homo sapiens, ABC-1; ABC1, WT; single agent; read-out: (nM) s.a. The method, then:
as §3

In the next experiment the test system is CAL12T. Kind of experiment: Combinatorial activity in LUAD cell line CAL12T. The format is cell-based. The conditions noted are these: Homo sapiens, CAL-12T, WT, single agent, read-out: (nM) s.a. As to the method: as §3
A further experiment concerns HCC2935. Put plainly: Combinatorial activity in LUAD cell line HCC2935. The conditions noted are these: Homo sapiens; HCC2935, WT; single agent; read-out: (nM) s.a. In kind it is cell-based. The method, then: as §3
The subject of a further experiment is NCIH2126. Kind of experiment: Combinatorial activity in LUAD cell line NCIH2126. In kind it is cell-based. The conditions noted are these: Homo sapiens, NCI-H2126; NCIH2126, WT; single agent; read-out: (nM) s.a. As to the method:
as §3

These results are taken from US20250041277A1, “METHODS AND DOSING REGIMENS COMPRISING A CDK2 INHIBITOR AND A CDK4 INHIBITOR FOR TREATING CANCER” (PFIZER INC., priority 2021, published 2025).

Consider `COCc1cc(C(=O)Nc2cc([C@H]3CC[C@@H](OC(=O)NC(C)C)C3)[nH]n2)n(C)n1` [PF-07104091, (1R,3S)-3-[3-({[3-(methoxymethyl)-1-methyl-1H-pyrazol-5-yl]carbonyl}amino)-1H-pyrazol-5-yl]cyclopentyl propan-2-ylcarbamate], for which the “SGI (%)” value in experiment [1] was 12%. Besides, the “Loewe Volume” value in experiment [2] is reported as −0.08; in experiment [3] it was 0.01. For the same compound, the “Best CI” value in [2] was determined as 1.04; in experiment [3] it was 0.95. In the experiment with ST941 PBR PDX model, this compound registered a TGI % of 36%. For the same compound, the IC50 with A427 is 276 nM; in the experiment with ABC1, 716 nM; in the experiment with CAL12T, 220 nM; in the experiment with HCC2935 it was 280 nM; in the experiment with NCIH2126, 372 nM.

For `CC(C)n1c(C(C)(C)O)nc2c(F)cc(-c3nc(N[C@@H]4CCOC[C@H]4O)ncc3Cl)cc21` [PF-07220060, 1,5-anhydro-3-({5-chloro-4-[4-fluoro-2-(2-hydroxypropan-2-yl)-1-(propan-2-yl)-1H-benzimidazol-6-yl]pyrimidin-2-yl}amino)-2,3-dideoxy-D-threo-pentitol], in [1], the “SGI (%)” value was found to be 81%. The results for the “Loewe Volume” value in experiment [2] and in [3] were −0.02 and 0.00, respectively. Moreover, the “Best CI” value in experiment [2] is 1.06; in experiment [3], 0.97. For the same compound, in the experiment with ST941 PBR PDX model, the TGI % was 19%. For the same compound, the IC50 in the experiment on A427 came to 124 nM; in the experiment on ABC1, 408 nM; with CAL12T, 210 nM; in the experiment with HCC2935, 141 nM; with NCIH2126, 255 nM.
